Reference: patent publication US11766470B2, “Manufacture, formulation and dosing of apraglutide” (VectivBio AG, priority 2020, dated 2023)
Square brackets hold non-standard residues; d marks the D form. Peptide text beside a SMILES is read from it. ξ: configuration not given here. Ile(3ξ) = CCC(C)[C@H](N)C(=O)O; Thr(3ξ) = CC(O)[C@H](N)C(=O)O; Nle = CCCC[C@H](N)C(=O)O

System: patients with SBS-IF
Experiment: Phase 2 placebo-controlled crossover trial in SBS-IF patients (Example 5): urine output, urine sodium, PS volume, oral fluid intake, hydration parameters, plasma L-citrulline, body composition
Format: in vivo, human
Description: The following non-limiting example describes results from a Phase 2 clinical trial in which subjects with SBS-IF were treated with the apraglutide formulations of the present disclosure. This Phase 2 trial investigated the safety and efficacy of 5 and 10 mg apraglutide in patients with SBS-IF.
Eight adult patients with SBS-IF were treated with apraglutide compositions of the present disclosure according to Table 6. Briefly, patients with SBS-IF were administered 5 mg apraglutide of the present disclosure or placebo once a week for four weeks. The patients were then administered 10 mg apraglutide of the present disclosure once a week for four weeks. Additionally, there was a washout period of 6-10 weeks between treatments.
The trial described in Example 5 was a double-blind, crossover, randomized, placebo-controlled, phase 2 trial followed by an additional treatment period in an open-label regimen. Eight adult patients (aged ≥18 to ≤80 years) with SBS-IF were enrolled in the trial. Patient eligibility was assessed during a screening visit. The main inclusion criteria were: Patients with SBS secondary to surgical resection of the small bowel with a jejuno- or ileostomy, at least 6 months since last bowel resection, a fecal output of at least 1500 g/day as recorded within the last 18 months, and PS-infusions≥3 times per week for ≥12 months according to the patient's medical record. Patients were excluded, if they had clinical signs of activity in inflammatory bowel disease, a history of cancer within ≤5 years or an inadequate hepatic, kidney, or heart function. Patients were also excluded, if they had received native GLP-2 or a GLP-2 analogue within the last 3 months.
The procedures during each treatment period were consistent.
Efficacy assessments were performed for each treatment period of 29 days. Patients received a paper diary for recording PS volume administration, urine collections and oral fluid intakes at specific time points. Patients performed home 48-hour urine collections at baseline (day −2 to 1), immediately after first treatment injection (day 1 to 3), and at the end of the treatment period (day 27-29, […] after the fourth administration of the trial drug). Urine was collected by the patient in a urine container with volume markings and 48-hour urine volumes were reported in the diary. After completing the 48-hour collection, patients transferred approximately 100 mL of urine from the container to a sample which was delivered at the next patient visit. The amount of sodium excreted per 48 hours was then calculated as the concentration of sodium in the sample multiplied by the total volume of urine collected. During each urine collection, weekly PS volume and content and daily oral fluid intake were kept constant. Since they were kept constant, increases in urine volume were a sign of increased fluid absorption. […] Patients were to adhere to their drinking menu during each urine collection and the concomitant 48-hour oral fluid intake was reported in the diary during each urine collection.
On day 20-22, patients were informed to record their spontaneous oral fluid intake during 48 hours. This measurement was included to investigate whether increased intestinal absorption was associated with a decrease in their spontaneous oral fluid intake.
Between day 4 and 24, PS volume reductions were allowed if deemed clinically necessary by the investigator. […] PS volume reductions were assessed during day 20-22. Patients returned to their baseline PS volume and content during the end of the treatment urine collection (day 27-29). Concomitant medications including proton-pump inhibitors, loperamide, and opiates were kept unchanged and stable throughout the trial. If necessary, adjustments could be made in the drinking menu and prescribed PS volume and content between treatment periods based on discussions between the patient and the investigator.
Body weight was measured using a levelled platform scale. […]

[1] = 5 mg vs 10 mg, Part A+B, day 1-3 after first injection
[2] = 5 mg vs 10 mg, Part A+B, day 20-22
[3] = 5 mg vs 10 mg, Part A+B, day 27-29
[4] = 5 mg vs 10 mg, Part A+B, end of treatment
[5] = 5 mg vs placebo, Part A+B, day 1-3 after first injection
[6] = 5 mg vs placebo, Part A+B, day 20-22
[7] = 5 mg vs placebo, Part A+B, day 27-29
[8] = 5 mg vs placebo, Part A+B, day 27-29, listed as Apraglutide
[9] = 5 mg vs placebo, Part A+B, end of treatment

For `CCCC[C@H](NC(=O)[C@H](CCC(=O)O)NC(=O)[C@H](CC(=O)O)NC(=O)[C@H](CO)NC(=O)[C@H](Cc1ccccc1)NC(=O)[C@H](CO)NC(=O)CNC(=O)[C@H](CC(=O)O)NC(=O)CNC(=O)[C@@H](N)Cc1c[nH]cn1)C(=O)N[C@H](Cc1ccccc1)C(=O)N[C@H](C(=O)N[C@H](C(=O)N[C@@H](CC(C)C)C(=O)N[C@@H](CC(=O)O)C(=O)N[C@@H](CC(C)C)C(=O)N[C@@H](CC(C)C)C(=O)N[C@@H](C)C(=O)N[C@@H](C)C(=O)N[C@@H](CCCNC(=N)N)C(=O)N[C@@H](CC(=O)O)C(=O)N[C@@H](Cc1ccccc1)C(=O)N[C@H](C(=O)N[C@@H](CC(N)=O)C(=O)N[C@@H](Cc1c[nH]c2ccccc12)C(=O)N[C@@H](CC(C)C)C(=O)N[C@H](C(=O)N[C@@H](CCC(N)=O)C(=O)N[C@H](C(=O)N[C@@H](CCCCN)C(=O)N[C@H](C(=O)N[C@H](C(=O)N[C@@H](CC(=O)O)C(N)=O)C(C)O)C(C)CC)C(C)O)C(C)CC)C(C)CC)C(C)CC)C(C)O` (stereo partly drawn) [apraglutide, L-histidyl-glycyl-L-aspartyl-glycyl-L-seryl-L-phenylalanyl-L-seryl-L-aspartyl-L-glutamyl-L-norleucyl-D-phenylalanyl-L-threonyl-Lisoleucyl-L-leucyl-L-aspartyl-L-leucyl-L-leucyl-L-alanyl-L-alanyl-L-arginyl-L-aspartyl-L-phenylalanyl-L-isoleucyl-L-asparaginyl-Ltryptophanyl-L-leucyl-L-isoleucyl-L-glutaminyl-L-threonyl-L-lysyl-L-isoleucyl-L-threonyl-Laspartic acid amide] (H-HGDGSFSDE[Nle][dF][Thr(3ξ)][Ile(3ξ)]LDLLAARDF[Ile(3ξ)]NWL[Ile(3ξ)]Q[Thr(3ξ)]K[Ile(3ξ)][Thr(3ξ)]D-NH2), the “Patients with increased relative urine volume output compared to placebo (exceeding 10%)” value (5 mg) was 6 out of 8, the “Absolute urine output, adjusted mean change from baseline” value [1] was −26 (−462 to 409); mL/day and the “Relative urine output, adjusted mean change from baseline” value [1] was −12 (−43 to 19); %. The “Urine sodium excretion (%), adjusted mean change from baseline” value [1] was −43(−149 to 63); %, the “Urine sodium excretion, adjusted mean change from baseline” value [1] was −1 (−22 to 20); mmol/day and the “Oral fluid intake, adjusted mean change from baseline” value [2] was −119 (−396 to 157); mL/day. The “PS volume, adjusted mean change from baseline” value [2] was −380 (−851 to 91); mL/day, the “Relative PS volume, adjusted mean change from baseline” value [2] was −15 (−38 to 9); % and the “Relative oral fluid intake, adjusted mean change from baseline” value [2] was −7 (−17 to 3); %. For the same molecule, the “Absolute urine output, adjusted mean change from baseline” value [3] was 84 (−514 to 682); mL/day, the “Relative urine output, adjusted mean change from baseline” value [3] was −14 (−51 to 23); % and the “Urine sodium excretion (%), adjusted mean change from baseline” value [3] was 266 (−266 to 798); %. For the same molecule, the “Urine sodium excretion, adjusted mean change from baseline” value [3] was 32 (−37 to 101); mmol/day, the “Albumin, adjusted mean change from baseline” value [4] was 1.0 (−0.8 to 2.9); g/L and the “Aldosterone, adjusted mean change from baseline” value [4] was −151 (−3,570 to 3,268); pmol/L. For the same molecule, the “Body weight, adjusted mean change from baseline” value [4] was −0.6 (−2.4 to 1.3); kg, the “Bone mineral content, adjusted mean change from baseline” value [4] was 12 (−57 to 82); g and the “CO2 total, adjusted mean change from baseline” value [4] was 1.0 (−1.4 to 3.4); mmol/L. For the same molecule, the “Creatinine, adjusted mean change from baseline” value [4] was 4.6 (−12.3 to 21.5); umol/L, the “Fat body mass, adjusted mean change from baseline” value [4] was −1.44 (−2.92 to 0.04); kg and the “Hematocrit, adjusted mean change from baseline” value [4] was −0.4 (−1.2 to 0.4); vol/fr. The “Lean body mass, adjusted mean change from baseline” value [4] was 0.12 (−3.00 to 3.24); kg, the “Plasma L-citrulline, adjusted mean change from baseline” value [4] was −3.6 (−19.8 to 12.6); μmol/L and the “Protein, adjusted mean change from baseline” value [4] was −0.3 (−4.5 to 3.9); g/L. The “Relative body weight, adjusted mean change from baseline” value [4] was −1 (−4 to 2); %, the “Relative bone mineral content, adjusted mean change from baseline” value [4] was 0 (−3 to 3); % and the “Relative fat body mass, adjusted mean change from baseline” value [4] was −7 (−16 to 1); %. The “Relative lean body mass, adjusted mean change from baseline” value [4] was −0 (−8 to 7); %, the “Relative plasma L-citrulline, adjusted mean change from baseline” value [4] was −23 (−74 to 29); % and the “Urea, adjusted mean change from baseline” value [4] was 0.3 (−1.3 to 1.9); mmol/L. For the same molecule, the “Fluid composite effect, estimated difference between the two doses” value (5 mg vs 10 mg, post-hoc, Part A+B) was 594, the “Absolute urine output, adjusted mean change from baseline” value [5] was −38 (−456 to 381); mL/day and the “Relative urine output, adjusted mean change from baseline” value [5] was 6 (−24 to 35); %. For the same molecule, the “Urine sodium excretion (%), adjusted mean change from baseline” value [5] was 65 ( −36 to 166); %, the “Urine sodium excretion, adjusted mean change from baseline” value [5] was 3 (−17 to 23); mmol/day and the “PS volume, adjusted mean change from baseline” value [6] was −89 (−543 to 366); mL/day. The “Relative PS volume, adjusted mean change from baseline” value [6] was −13 (−36 to 9); %, the “Relative oral fluid intake, adjusted mean change from baseline” value [6] was −9 (−18 to 1); % and the “Absolute urine output, adjusted mean change from baseline” value [7] was 711 (132 to 1,289); mL/day. For the same molecule, the “Relative urine output, adjusted mean change from baseline” value [7] was 48 (12 to 84); %, the “Urine sodium excretion (%), adjusted mean change from baseline” value [7] was 166 (−342 to 675); % and the “Urine sodium excretion, adjusted mean change from baseline” value [7] was 56 (−10 to 123); mmol/day. The “Absolute urine output, adjusted mean change from baseline” value [8] was 711 mL/day, the “Relative urine output, adjusted mean change from baseline” value [8] was 48% and the “Urine sodium excretion, adjusted mean change from baseline” value [8] was 56 mmol/day. The “Albumin, adjusted mean change from baseline” value [9] was −0.0 (−1.8 to 1.8); g/L, the “Body weight, adjusted mean change from baseline” value [9] was 1.9 (0.1 to 3.7); kg and the “Bone mineral content, adjusted mean change from baseline” value [9] was −4 (−73 to 66); g. For the same molecule, the “CO2 total, adjusted mean change from baseline” value [9] was 0.3 (−2.0 to 2.6); mmol/L, the “Creatinine, adjusted mean change from baseline” value [9] was −9.7(−25.8 to 6.4); umol/L and the “Fat body mass, adjusted mean change from baseline” value [9] was 1.77 (0.29 to 3.24); kg. For the same molecule, the “Hematocrit, adjusted mean change from baseline” value [9] was 0.6 (−0.2 to1.4); vol/fr, the “Lean body mass, adjusted mean change from baseline” value [9] was 0.64 (−2.49 to 3.77); kg and the “Plasma L-citrulline, adjusted mean change from baseline” value [9] was 17.6 (2.0 to 33.2); μmol/L. The “Protein, adjusted mean change from baseline” value [9] was −0.4 (−4.2 to 3.4); g/L.
